The values below come from patent US4977268A, “Boron dipeptide compounds” (priority 1988, dated 1990).

In brackets after ≈: the same amount, converted by molar mass.

Experiment [1] deals with P-388 lymphocytic leukemia. In words: Cytotoxic assay, P-388 lymphocytic leukemia cell line. Type of experiment: cell-based. The conditions noted are these: dosage required to kill 50 percent of the tumor cells in cell culture.
Description: (§2) Boron dipeptide analogs were investigated for potential antineoplastic activity in the Ehrlich ascites carcinoma in vivo screen in CF-1 mice and in cytotoxic assays involving the L-1210 lymphoid leukemia and P-388 lymphocytic leukemia cell lines. The ED50 is the effective dosage required to kill 50 percent of the tumor cells in the leukemia cell culture.
Experiment [2] has as its system L-1210 lymphoid leukemia. In words: Cytotoxic assay, L-1210 lymphoid leukemia cell line. Type of experiment: cell-based. Conditions: dosage required to kill 50 percent of the tumor cells in cell culture.
Description: as §2
Experiment [3] has as its system Ehrlich ascites carcinoma. In words: Ehrlich ascites carcinoma in vivo screen. More on the design: concentration or dose not given beside the values. The conditions noted are these: CF-1 mice.
Experiment [4] deals with serum cholesterol levels. Description: Antihyperlipidemic screen, serum cholesterol. The conditions noted are these: male CF1 mice. Type of experiment: in vivo. The procedure:
(§1) Compounds to be tested were suspended in 1% aqueous carboxymethylcellulose and administered to male CF1 mice (25 g) intraperitoneally for 16d. On days 9 and 16, blood was obtained by tail vein bleeding, and the serum was separated by centrifugation for three minutes. The serum cholesterol levels were determined by a modification of the Liebermann-Burchard reaction [A. T. Ness, J. V. Pastewka, and A. C. Peacock, Clin. Chim. Acta, 10, 229 (1964)]. Serum triglyceride levels were determined with a commercial kit [Fisher, Hycel Triglyceride Test Kit] for a different group of animal bled on day 16.

For experiment [5], the system named is Serum triglyceride levels. Description: Antihyperlipidemic screen, serum triglyceride. Type of experiment: in vivo. The conditions noted are these: male CF1 mice. The procedure:
as §1

As to `O=c1[nH]cc(F)c(=O)[nH]1` [5-Fluorouracil, reference compound], the “ED50 Cytotoxicity P-388 Lymphocytic Leukemia” value in experiment [1] worked out at 3.72 µg/mL (≈ 28.6 µM). Further, the “ED50 Cytotoxicity L-1210 Lymphoid Leukemia” value in experiment [2] was found to be 1.94 µg/mL (≈ 14.9 µM).

Consider `Sc1ncnc2nc[nH]c12` [6-Mercaptopurine, reference compound], for which, in experiment [3], the “In Vivo % Inhibition of Ehrlich Ascites Carcinoma Growth” value (“In Vivo % Inhibition” for short) worked out at 99.6%. The “ED50 Cytotoxicity P-388 Lymphocytic Leukemia” value in experiment [1] is 4.10 µg/mL (≈ 26.9 µM). Moreover, the “ED50 Cytotoxicity L-1210 Lymphoid Leukemia” value in experiment [2] was 2.43 µg/mL (≈ 16 µM).

For `Nc1ccn([C@@H]2O[C@H](CO)[C@@H](O)[C@@H]2O)c(=O)n1` [Ara C, reference compound], the “ED50 Cytotoxicity P-388 Lymphocytic Leukemia” value in experiment [1] came out at 4.06 µg/mL (≈ 16.7 µM). Also, in experiment [2], the “ED50 Cytotoxicity L-1210 Lymphoid Leukemia” value was determined as 2.76 µg/mL (≈ 11.3 µM).

On to `NC(=O)CNC(=O)[BH2-][NH3+]` [Compound 1, N-[(ammonia-boryl)carbonyl]glycine amide], for which, in experiment [4] (8 mg/kg intraperitoneally), the “% Inhibition Serum Cholesterol Day 9” value was found to be 21% and the “% Inhibition Serum Cholesterol Day 16” value stood at 42%. For the same compound, the “In Vivo % Inhibition” value in experiment [3] came to 67%. For the same compound, the “% Inhibition Serum Triglyceride Day 16” value in experiment [5] (8 mg/kg intraperitoneally) was determined as 53%. The “ED50 Cytotoxicity P-388 Lymphocytic Leukemia” value in experiment [1] worked out at 7.62 µg/mL (≈ 58.2 µM). Besides, in experiment [2], the “ED50 Cytotoxicity L-1210 Lymphoid Leukemia” value was found to be 1.40 µg/mL (≈ 10.7 µM).

Take `NC(=O)C(CO)NC(=O)[BH2-][NH3+]` (stereo not drawn) [Compound 2, N-[(Ammoniaboryl)carbonyl]serine amide]: in experiment [3], the “In Vivo % Inhibition” value is recorded as 52%. In experiment [1], the “ED50 Cytotoxicity P-388 Lymphocytic Leukemia” value stood at 8.73 µg/mL (≈ 54.2 µM). Further, the “ED50 Cytotoxicity L-1210 Lymphoid Leukemia” value in experiment [2] was determined as 10.6 µg/mL (≈ 65.9 µM).

Turning to `CSCCC(NC(=O)[BH2-][NH3+])C(N)=O` (stereo not drawn) [Compound 3, N-[(Ammonia-boryl)carbonyl] methionine amide], the “In Vivo % Inhibition” value in experiment [3] stood at 75%. In experiment [1], the “ED50 Cytotoxicity P-388 Lymphocytic Leukemia” value was found to be 8.57 µg/mL (≈ 41.8 µM). Also, the “ED50 Cytotoxicity L-1210 Lymphoid Leukemia” value in experiment [2] came to 4.17 µg/mL (≈ 20.3 µM).

As to `COC(=O)CNC(=O)[BH2-][N+](C)(C)C` [Compound 7, N-[(Trimethylamine-boryl)carbonyl]glycine methyl ester], the “% Inhibition Serum Cholesterol Day 9” value in experiment [4] (8 mg/kg intraperitoneally) came to 21%; in experiment [4] (20 mg/kg intraperitoneally) it was 31%. Also, the “% Inhibition Serum Cholesterol Day 16” value in experiment [4] (8 mg/kg intraperitoneally) was 42%; in experiment [4] (20 mg/kg intraperitoneally), 52%. Besides, in experiment [3], the “In Vivo % Inhibition” value worked out at 89%. In addition, the “% Inhibition Serum Triglyceride Day 16” value in experiment [5] (8 mg/kg intraperitoneally) came out at 59%; in experiment [5] (20 mg/kg intraperitoneally) it was 30%. In experiment [1], the “ED50 Cytotoxicity P-388 Lymphocytic Leukemia” value is 12.11 µg/mL (≈ 64.4 µM). Also, the “ED50 Cytotoxicity L-1210 Lymphoid Leukemia” value in experiment [2] turned out to be 7.00 µg/mL (≈ 37.2 µM).

On to `COC(=O)[C@H](CO)NC(=O)[BH2-][N+](C)(C)C` [Compound 8, N-[(Trimethylamine-boryl)carbonyl]-L-serine methyl ester], for which, in experiment [3], the “In Vivo % Inhibition” value stood at 61%. The “ED50 Cytotoxicity P-388 Lymphocytic Leukemia” value in experiment [1] is 9.21 µg/mL (≈ 42.2 µM). Besides, the “ED50 Cytotoxicity L-1210 Lymphoid Leukemia” value in experiment [2] was determined as 1.98 µg/mL (≈ 9.08 µM).

In the case of `COC(=O)[C@H](CCSC)NC(=O)[BH2-][N+](C)(C)C` [Compound 9, N-[(Trimethylamine-boryl)carbonyl]-L-methionine methyl ester], in experiment [4] (20 mg/kg intraperitoneally), the “% Inhibition Serum Cholesterol Day 9” value amounted to 55% and the “% Inhibition Serum Cholesterol Day 16” value is 55%. Moreover, in experiment [3], the “In Vivo % Inhibition” value is on record as 41%. Besides, the “% Inhibition Serum Triglyceride Day 16” value in experiment [5] (20 mg/kg intraperitoneally) was determined as 23%. In experiment [1], the “ED50 Cytotoxicity P-388 Lymphocytic Leukemia” value was determined as 12.86 µg/mL (≈ 49 µM). The “ED50 Cytotoxicity L-1210 Lymphoid Leukemia” value in experiment [2] was found to be 6.62 µg/mL (≈ 25.2 µM).

On to `COC(=O)[C@H](Cc1ccccc1)NC(=O)[BH2-][N+](C)(C)C` [Compound 13, N-[(Trimethylamine-boryl)carbonyl]-L-phenylalanine methyl ester], for which, in experiment [4] (20 mg/kg intraperitoneally), the “% Inhibition Serum Cholesterol Day 9” value turned out to be 25% and the “% Inhibition Serum Cholesterol Day 16” value amounted to 48%. Also, in experiment [3], the “In Vivo % Inhibition” value was determined as 94%. The “% Inhibition Serum Triglyceride Day 16” value in experiment [5] (20 mg/kg intraperitoneally) is given as 33%. In experiment [1], the “ED50 Cytotoxicity P-388 Lymphocytic Leukemia” value was 8.89 µg/mL (≈ 32 µM). Also, in experiment [2], the “ED50 Cytotoxicity L-1210 Lymphoid Leukemia” value came to 10.84 µg/mL (≈ 39 µM).

For `COC(=O)[C@H](C)NC(=O)[BH2-][N+](C)(C)C` [Compound 16, N-[(Trimethylamine-boryl)carbonyl]-L-alanine methyl ester], in experiment [3], the “In Vivo % Inhibition” value came out at 83%.

For `N[C@@H](Cc1ccc(N(CCCl)CCCl)cc1)C(=O)O` [Melphalan, reference compound], in experiment [3], the “In Vivo % Inhibition” value is listed as 99%.
